Assay results taken from patent US8440837B2, “2-substituted-ethynylthiazole derivatives and uses of same” (H. Lundbeck A/S, priority 2009, dated 2013).

Assays:
[1] = system: working memory processes (cognition); experiment: Novel object recognition (NOR) test; format: in vivo, rats
Description: Cognition can be assessed by the novel object recognition (NOR). NOR can be used to access cognitive performance with respect to processes of working memory, such as recognition, interpretation and appropriate response. The NOR test was performed using the compound of Example 1 and reference compound in vehicle of 20% β-cyclodextrin (βCD) in dH2O. Example 1 (at 3.0 mg/kg, ip in rats) has activity as measured in the NOR test. Along with Example 1, Examples 2, 12 and 35 (at 1.0 mg/kg, po in rats) have activity as measured in the NOR test.

mGluR5 = mGluR5 (Homo sapiens, UniProt P41594); experiment: [3H] MPEP radioligand filtration binding assay on membrane homogenates; conditions: 5 nM [3H] MPEP, Cheng-Prusoff from IC50
Description: Binding assays were performed as described in [J. A. O'Brien et al. Mol. Pharmacol., 2003, 64, 731-740] with slight modifications. Briefly, after thawing, the membrane homogenates were resuspended in 50 mM Tris-HCl, 0.9% NaCl binding buffer at pH 7.4 to a final assay concentration of 20 μg protein/well for [^3H] […] ([^3H] MPEP) (American Radiolabeled Chemicals, Inc., St. Louis, Mo.) filtration binding. Incubations included 5 nM [^3H] MPEP, membranes and either buffer or varying concentrations of compound. Samples were incubated for 60 min at room temperature with shaking. Non-specific binding was defined with 10 μM MPEP. After incubation, samples were filtered over a GF/C filter (presoaked in 0.25% polyethyleneimine (PEI)) and then washed 4 times using a Tomtec® Harvester 96® Mach III cell harvester (Tomtec, Hamden, Conn.) with 0.5 mL ice-cold 50 mM Tris-HCl (pH 7.4).
IC50 values were derived from the inhibition curve and Ki values were calculated according to the Cheng and Prusoff equation of Ki=IC50/(1+[L]/Kd) described in [Y. Cheng and W. H. Prusoff Biochem. Pharmacol. 1973, 22, 3099-3108] where [L] is the concentration of radioligand and Kd is its dissociation constant at the receptor, derived from the saturation isotherm.

[2] = target: human metabotropic glutamate receptor 5 (hmGluR5) (UniProt P31424); experiment: Calcium mobilization (FLIPR) assay, positive allosteric modulation of the EC20 glutamate response; format: cell-based; conditions: HEK 293 cells; for maximum modulation (Emax): EC20 glutamate response; for EC50: increase in EC20 glutamate response
Description: (§1) The cDNA for human metabotropic glutamate receptor 5 (hmGluR5) was a generous gift from S. Nakanishi (Kyoto University, Kyoto, Japan). The […] was stably expressed in a HEK 293 cell line and grown in Dulbecco's Modified Eagle Medium (DMEM) (Invitrogen, Carlsbad, Calif.) with supplements (10% bovine calf serum, 4 mM glutamine, 100 units/mL penicillin, 100 μg/mL streptomycin and […]) at 37° C., 5% CO2. Twenty-four hours prior to assay, cells were seeded into 384-well black wall microtiter plates coated with poly-D-lysine. Just prior to assay, media was aspirated and cells dye-loaded (25 μL/well) with 3 μM Fluo-4/0.01% pluronic acid in assay buffer (Hank's Balanced Saline Solution (HBSS)): 150 mM NaCl, 5 mM KCl, 1 mM CaCl2, 1 mM MgCl2, plus 20 mM N-2-Hydroxyethylpiperazine-N′-2-ethanesulfonic acid (HEPES), pH 7.4, 0.1% bovine serum albumin (BSA) and 2.5 mM probenicid) for 1 hour in 5% CO2 at 37° C. After excess dye was discarded, cells were washed in assay buffer and layered with a final volume equal to 30 μL/well. Basal fluorescence is monitored in a fluorometric imaging plate reader (FLIPR) (Molecular Devices, Sunnyvale, Calif.) with an excitation wavelength of 488 nm and an emission range of 500 to 560 nm. Laser excitation energy was adjusted so that basal fluorescence readings were approximately 10,000 relative fluorescent units. Cells were stimulated with an EC20 or an EC80 concentration of glutamate in the presence of a compound to be tested, both diluted in assay buffer, and relative fluorescent units were measured at defined intervals (exposure=0.6 sec) over a 3 min period at room temperature. Basal readings derived from negative controls were subtracted from all samples. Maximum change in fluorescence was calculated for each well. Concentration-response curves derived from the maximum change in fluorescence were analyzed by nonlinear regression (Hill equation).
A silent allosteric modulator (SAM) can be identified by using a combination of both the calcium mobilization assay data and the radioligand binding data. As used herein, the term “silent allosteric modulator” refers to a ligand that binds to an allosteric site of the receptor but has no measurable intrinsic efficacy.

[3] = target: human metabotropic glutamate receptor 5 (hmGluR5); experiment: Calcium mobilization (FLIPR) assay, negative allosteric modulation of the EC80 glutamate response; format: cell-based; conditions: HEK 293 cells, inhibition of EC80 glutamate response
Description: as §1
A negative allosteric modulator (NAM) can be identified from these concentration-response curves if a compound produces a concentration dependent inhibition of the EC80 glutamate response.

Chain of mGluR5 (P41594 21-1212): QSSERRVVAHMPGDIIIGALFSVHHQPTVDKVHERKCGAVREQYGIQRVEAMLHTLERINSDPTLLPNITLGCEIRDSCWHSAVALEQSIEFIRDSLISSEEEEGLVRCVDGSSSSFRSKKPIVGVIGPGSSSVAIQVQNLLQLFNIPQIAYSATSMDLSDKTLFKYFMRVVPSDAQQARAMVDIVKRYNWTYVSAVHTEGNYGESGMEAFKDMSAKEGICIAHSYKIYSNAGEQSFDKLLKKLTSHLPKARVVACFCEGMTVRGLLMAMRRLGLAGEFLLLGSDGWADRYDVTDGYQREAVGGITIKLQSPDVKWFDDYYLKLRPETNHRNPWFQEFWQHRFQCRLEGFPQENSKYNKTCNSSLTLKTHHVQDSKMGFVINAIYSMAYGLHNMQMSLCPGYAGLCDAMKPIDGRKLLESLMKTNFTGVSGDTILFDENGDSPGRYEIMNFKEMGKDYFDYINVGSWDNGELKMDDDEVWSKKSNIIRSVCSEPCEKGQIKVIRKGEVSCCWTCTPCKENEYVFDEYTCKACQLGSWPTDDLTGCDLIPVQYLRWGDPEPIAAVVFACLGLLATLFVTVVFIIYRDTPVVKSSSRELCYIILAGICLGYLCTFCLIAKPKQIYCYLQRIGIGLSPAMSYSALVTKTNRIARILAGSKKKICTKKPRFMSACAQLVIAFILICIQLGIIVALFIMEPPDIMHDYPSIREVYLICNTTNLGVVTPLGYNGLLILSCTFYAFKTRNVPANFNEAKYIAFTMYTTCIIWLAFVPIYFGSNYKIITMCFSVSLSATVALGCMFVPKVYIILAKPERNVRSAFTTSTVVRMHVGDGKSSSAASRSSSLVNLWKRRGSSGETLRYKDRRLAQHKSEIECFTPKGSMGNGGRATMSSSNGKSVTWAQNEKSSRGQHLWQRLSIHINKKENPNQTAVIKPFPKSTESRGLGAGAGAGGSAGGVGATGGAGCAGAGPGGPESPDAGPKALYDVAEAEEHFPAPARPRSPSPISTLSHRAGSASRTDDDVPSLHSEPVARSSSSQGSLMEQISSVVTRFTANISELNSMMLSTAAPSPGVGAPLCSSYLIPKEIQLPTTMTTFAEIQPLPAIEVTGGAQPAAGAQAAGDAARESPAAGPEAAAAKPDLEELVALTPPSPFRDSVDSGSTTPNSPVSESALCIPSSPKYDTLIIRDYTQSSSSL

| SMILES | Ki (mGluR5) [nM] | IC50 [3] [nM] | also measured |
| --- | --- | --- | --- |
| O=C(c1cnc(C#Cc2ccccc2)s1)N1CCC(F)CC1 [Example 2, (4-Fluoro-piperidin-1-yl)-(2-phenylethynyl-thiazol-5-yl)-methanone] | 192 |  | activity in the NOR test ([1]; 1.0 mg/kg, po in rats, FIG. 2): have activity; maximum modulation (Emax) [2]: 130%; EC50 [2]: 7.9 nM |
| Cc1nc(C#Cc2ccccc2)sc1C(=O)NC1CCCC1 [Example 16, 4-Methyl-2-phenylethynyl-thiazole-5-carboxylic acid cyclopentylamide] |  | 36 |  |
| O=C(c1cnc(C#Cc2ccccc2)s1)N1CCC(O)CC1 [Example 12, (4-Hydroxy-piperidin-1-yl)-(2-phenylethynyl-thiazol-5-yl)-methanone] | 7170 |  | activity in the NOR test ([1]; 1.0 mg/kg, po in rats, FIG. 2): have activity; maximum modulation (Emax) [2]: 170%; EC50 [2]: 280 nM |
| O=C(c1cnc(C#Cc2ccccc2)s1)N1CCOCC1 [Example 7, Morpholin-4-yl-(2-phenylethynyl-thiazol-5-yl)-methanone] | 860 |  |  |
| Cc1cccc(C#Cc2ncc(C(=O)NC3CCCC3)s2)c1 [Example 24, 2-m-Tolylethynyl-thiazole-5-carboxylic acid cyclopentylamide] |  | 0.7 |  |
| O=C(c1cnc(C#Cc2ccccc2)s1)N1CC[C@@H](F)C1 [Example 6, ((R)-3-Fluoro-pyrrolidin-1-yl)-(2-phenylethynyl-thiazol-5-yl)-methanone] |  | 37 |  |
| O=C(c1cnc(C#Cc2cccc(F)c2)s1)N1CCCC1 [Example 21, [2-(3-Fluoro-phenylethynyl)-thiazol-5-yl]-pyrrolidin-1-yl-methanone] |  | 7.1 |  |
| O=C(c1cnc(C#Cc2cccc(Cl)c2)s1)N1CCCCC1 [Example 35, [2-(3-Chloro-phenylethynyl)-thiazol-5-yl]-piperidin-1-yl-methanone] |  |  | activity in the NOR test ([1]; 1.0 mg/kg, po in rats, FIG. 2): have activity |
| O=C(c1cnc(C#Cc2ccccc2)s1)N1CCCCC1 [Example 1, (2-Phenylethynyl-thiazol-5-yl)-piperidin-1-yl-methanone] | 139 |  | activity in the NOR test ([1]; 1.0 mg/kg, po in rats, FIG. 2): have activity; activity in the NOR test ([1]; 3.0 mg/kg, ip in rats, FIG. 1): has activity; maximum modulation (Emax) [2]: 210%; EC50 [2]: 3.6 nM |
| CC1CCN(C(=O)c2cnc(C#Cc3ccccc3)s2)CC1 [Example 11, (4-Methyl-piperidin-1-yl)-(2-phenylethynyl-thiazol-5-yl)-methanone] | 135 |  | maximum modulation (Emax) [2]: 150%; EC50 [2]: 3.5 nM |
| Cc1nc(C#Cc2ccccc2)sc1C(=O)N1CCCCC1 [Example 13, (4-Methyl-2-phenylethynyl-thiazol-5-yl)-piperidin-1-yl-methanone] |  | 53 |  |
| O=C(c1cnc(C#Cc2ccccc2)s1)N1CC[C@H](F)C1 [Example 5, ((S)-3-Fluoro-pyrrolidin-1-yl)-(2-phenylethynyl-thiazol-5-yl)-methanone] |  | 3.2 |  |
| CC(c1cnc(C#Cc2ccccc2)s1)N1CCCCC1 (stereo not shown) [Example 231, 1-[1-(2-Phenylethynyl-thiazol-5-yl)-ethyl]-piperidine] |  | 700 |  |
| O=C(c1cnc(C#Cc2ccccc2)s1)N1C2CCC1CC2 [Example 145, (7-Aza-bicyclo[2.2.1]hept-7-yl)-(2-phenylethynyl-thiazol-5-yl)-methanone] |  | 5 |  |
| CC(O)(c1ccccc1)c1cnc(C#Cc2ccccc2)s1 (stereo not shown) [Example 240, 1-Phenyl-1-(2-phenylethynyl-thiazol-5-yl)-ethanol] |  | 140 |  |
| O=C(c1cnc(C#Cc2ccccc2)s1)N1CCC(F)(F)C1 [Example 115, (3,3-Difluoro-pyrrolidin-1-yl)-(2-phenylethynyl-thiazol-5-yl)-methanone] |  | 31 |  |
| O=C(c1cnc(C#Cc2ccccc2)s1)N1CC(F)(F)C1 [Example 114, (3,3-Difluoro-azetidin-1-yl)-(2-phenylethynyl-thiazol-5-yl)-methanone] |  | 54 |  |
| O=C(c1cnc(C#Cc2cccc(F)c2)s1)N1CCOCC1 [Example 22, [2-(3-Fluoro-phenylethynyl)-thiazol-5-yl]-morpholin-4-yl-methanone] | 300 |  |  |
| O=C(c1cnc(C#Cc2ccccc2)s1)N1CC2CNCC2C1 (stereo not shown) [Example 173, (Hexahydro-pyrrolo[3,4-c]pyrrol-2-yl)-(2-phenylethynyl-thiazol-5-yl)-methasone] |  | 440 |  |
